From patent publication US10889606B2, “Biflavone-iron complex, preparation method and application thereof” (NANJING FORESTRY UNIVERSITY, priority 2017, dated 2021) come the findings set out here.

SMILES strings stand for the structures.

The subject of test [1] is herring sperm DNA (fDNA). Put plainly: Interaction with herring sperm DNA (fDNA) by UV-vis spectroscopy, fluorescence spectroscopy and viscosity method. It counts as binding. Conditions: UV-vis, fluorescence (fDNA-EB system), viscosity. From the text: UV-vis spectroscopy, fluorescence spectroscopy and viscosity method are used to study the interaction between the Ame/Ame-Fe complex and herring sperm DNA (fDNA) to further reveal the mechanism of antitumor activity, the obtained spectra are shown in FIGS. 7-11. […] Thereby, it can be speculated that the mechanism of antitumor activity of the Ame and its complex may be that Ame or the complex thereof enters the interior of the cell and intercalates with the DNA strand to cause apoptosis. Since the interaction of the complex with DNA is stronger than of the Ame, the antitumor activity thereof is also stronger than of the Ame.

Test [2] is described as follows: ABTS method, ABTS^+. free radical scavenging. Conditions: read-out: IC50 for scavenging ABTS^+. free radicals, 25° C., 5 min, 730 nm.
Method: The free radical scavenging abilities of the Ame and the Ame-Fe complex were studied by pyrogallol auto-oxidation method and ABTS method with the following steps:
Within a certain range, the scavenging rate is linear with the concentration. The curve of the scavenging rate and the concentration (c) is plotted in the present invention to obtain a corresponding linear equation, and the maximum half-inhibitory concentration (IC50 value) is calculated.
The nature of test [3]: Pyrogallol auto-oxidation method, O2^−. free radical scavenging. Conditions: Tris-HCl pH 8.20, 25° C., 322 nm, read-out: IC50 to scavenge O2^−. free radical. As to the method:
(1) Pyrogallol Auto-Oxidation Method
Determination of auto-oxidation rate V0 of pyrogallol: 2 mL Tris-HCl buffer (pH=8.20) was added to a 10 mL sample tube at 25° C., 100 μL, DMSO was added as a control, after adding 0.8 mL distilled water, 0.2 mL pyrogallol solution having a concentration of 2 mmol·L^−1 was added, the mixture was poured into a cuvette after mixing uniformly, the absorbance at 322 nm was measured with pure water as a blank, the A value was recorded every 10 s for a total of 4 min, linear regression was performed with t as the abscissa, and A as the ordinate, straight line slope thereof is V0, and the measurement was performed for three times to obtain an average value.
The free radical scavenging rate was calculated according to Formula 3. SR(%)=(1−v1/v0)×[…] (Formula 3)

By IC50 is commonly meant the concentration that gives 50% inhibition. For `O=c1cc(-c2ccc(O)c(-c3c(O)cc(O)c4c(=O)cc(-c5ccc(O)cc5)oc34)c2)oc2cc(O)cc(O)c12` [Ame, amentoflavone], the “manner of interaction with fDNA” value in test [1] is recorded as “in the intercalation manner”. For the same compound, the concentration for half-maximal inhibition (IC50) in test [2] came out at 20.7 µM; in test [3], 23.3 µM.
